Values of other authors in paper PMC6931083 (Journal of Pharmaceutical Analysis, 2019).

Settings: ref 6 (Hentz et al.)

Question: For “A1 conjugated FITC-insulin: literature (Hentz et al.) FITC-insulin conjugated at A1”, which “Decrease in biological activity as compared to the native insulin” value is on record?
Answer: The value was 10%.

Question: Which “Decrease in biological activity as compared to the native insulin” value does the source give for “di-conjugated FITC-insulin: di-conjugated FITC-insulin at B1 and A1 (literature value, Hentz et al.)” here?
Answer: The value was 100%.

Question: With “mono-conjugated FITC-insulin (tagged at B1 position): literature (Hentz et al.) mono-conjugated FITC-insulin tagged at B1 position” as the substance, how does the “Biological activity compared to the native insulin” value read?
Answer: The value was “same biological activity as the native insulin”.
